# Laboratory results as given in patent US6562759B1, “Substituted phenyl uracils” (Bayer Aktiengesellschaft, priority 1999, dated 2003).
# How the values were obtained:
# weeds [1] = experiment: Post-emergence Test; format: in vivo; conditions: test plants of height 5-15 cm sprayed, rated after three weeks vs untreated control
# Protocol: Post-emergence Test Solvent: 5 parts by weight of acetone Emulsifier: 1 part by weight of alkylaryl polyglycol ether To produce a suitable preparation of active compound, 1 part by weight of active compound is mixed with the stated amount of solvent, the stated amount of emulsifier is added and the concentrate is diluted with water to the desired concentration. Test plants which have a height of 5-15 cm are sprayed with the preparation of active compound such that the particular amounts of active compound desired are applied per unit area. The concentration of the spray liquor is chosen so that the particular amounts of active compound desired are applied in 1000 l of water/ha. After three weeks, the degree of damage to the plants is rated in % damage in comparison to the development of the untreated control. The figures denote: 0%=no effect (like untreated control) 100%=total destruction
# weeds [2] = experiment: Pre-emergence Test; format: in vivo; conditions: soil sprayed about 24 hours after sowing, rated after three weeks vs untreated control
# Protocol: Pre-emergence Test Solvent: 5 parts by weight of acetone Emulsifier 1 part by weight of alkylaryl polyglycol ether To produce a suitable preparation of active compound, 1 part by weight of active compound is mixed with the stated amount of solvent, the stated amount of emulsifier is added and the concentrate is diluted with water to the desired concentration. Seeds of the test plants are sown in normal soil. After about 24 hours, the soil is sprayed with the preparation of active compound such that the particular amount of active compound desired is applied per unit area. The concentration of the spray liquor is chosen so that the particular amount of active compound desired is applied in 1000 litres of water per hectare. After three weeks, the degree of damage to the plants is rated in % damage in comparison to the development of the untreated control. The figures denote: 0%=no effect (like untreated control) 100%=total destruction
smiles,measurement,setting,value
"Cn1c(C(F)(F)F)cc(=O)n(-c2cc(C3OCCO3)c(C#N)cc2F)c1=O [Preparation Example 1, 1-[4-cyano-2-fluoro-5-(1,3-dioxolan-2-yl)-phenyl]-3,6-dihydro-2,6-dioxo-3-methyl-4-trifluoromethyl-1(2H)-pyrimidine]",activity against weeds (degree of damage to the plants),weeds [1],very strong activity against weeds
same,activity against weeds (degree of damage to the plants),weeds [2],very strong activity against weeds
